Laboratory results from PMC10178848, “Modulating fast skeletal muscle contraction protects skeletal muscle in animal models of Duchenne muscular dystrophy” (The Journal of Clinical Investigation, 2023).

Tested on: mdx mouse gastrocnemius muscle
Assay: RNA-Seq analysis of gastrocnemius muscle
Type: in vivo
Protocol: RNA-Seq was performed with isolated single nuclei using the 10X Genomics Chromium Single Cell 3’ Protocol, Accessories, and Kits (CG000183 Rev A). Data were then analyzed by Rosalind (https://rosalind.onramp.bio/), with a HyperScale architecture developed by OnRamp BioInformatics Inc. Data have been submitted to the Gene Expression Omnibus (GEO) database at the NIH (accession GSE227510).

[1] = mdx EDG-5506 3 mg/kg vs mdx Control

Question: Which “log2FoldChange Chrng” value (mdx EDG-5506 3 mg/kg vs WT) does the source give for `O=c1ccc(-c2cnc(OCC(F)(F)F)nc2)nn1Cc1cncc(F)c1` [EDG-5506] here?
Answer: 0.42

Question: And the “log2FoldChange Igfn1” value (mdx EDG-5506 3 mg/kg vs WT)?
Answer: 2.931

Question: What about the “log2FoldChange Katnal2” value (mdx EDG-5506 3 mg/kg vs WT) of the same compound?
Answer: 1.899

Question: What about the “log2FoldChange Myh8” value (mdx EDG-5506 3 mg/kg vs WT) of the same compound?
Answer: 0.5674

Question: And the “log2FoldChange Myl4” value (mdx EDG-5506 3 mg/kg vs WT)?
Answer: 1.684

Question: What about the “log2FoldChange Chrng” value [1] of the same compound?
Answer: -0.2866

Question: What about the “log2FoldChange Igfn1” value [1] of the same compound?
Answer: -0.9018

Question: And the “log2FoldChange Katnal2” value [1]?
Answer: -0.9377

Question: And the “log2FoldChange Myh8” value [1]?
Answer: -0.538

Question: And the “log2FoldChange Myl4” value [1]?
Answer: -1.31

Question: What about the “skeletal muscle transcription profile” value (mdx mice, 8 weeks) of the same compound?
Answer: returned the skeletal muscle transcription profile closer to that of WT mice
